Data reported in ChEMBL document CHEMBL3272020, “Synthesis, antimalarial activity, and phototoxicity of some benzo(h)quinoline-4-methanols” (J Med Chem, 1976).
Active and inactive are the calls of the source. The rule behind the calls is not given here.

Columns and labels:
[1] = test system: Plasmodium berghei; assay: Antimalarial activity against Plasmodium berghei infected in mouse assessed as change in mean survival time at 640 mg/kg, sc; type: functional; conditions: route subcutaneous
[2] = test system: Mus musculus; assay: Toxicity in mouse infected with Plasmodium berghei assessed as animal death at 640 mg/kg, sc; type: organism-based; design: dose 640 mg/kg, route subcutaneous; conditions: in vivo
[3] = test system: Plasmodium berghei; assay: Antimalarial activity against Plasmodium berghei infected in mouse assessed as change in mean survival time at 160 mg/kg, sc; type: functional; conditions: route subcutaneous
[4] = test system: Mus musculus; assay: Phototoxicity in ip dosed mouse; type: organism-based; conditions: in vivo
[5] = test system: Plasmodium berghei; assay: Antimalarial activity against Plasmodium berghei infected in mouse assessed as change in mean survival time at 320 mg/kg, sc; type: functional; conditions: route subcutaneous
[6] = test system: Plasmodium berghei; assay: Antimalarial activity against Plasmodium berghei infected in mouse assessed as disease cure by measuring host survival for 60 days at 320 mg/kg, sc; type: functional, organism-based; design: dose 320 mg/kg
[7] = test system: Plasmodium berghei; assay: Antimalarial activity against Plasmodium berghei infected in mouse assessed as disease cure by measuring host survival for 60 days at 640 mg/kg, sc; type: functional, organism-based; design: dose 640 mg/kg
[8] = test system: Mus musculus; assay: Toxicity in mouse infected with Plasmodium berghei assessed as animal death at 320 mg/kg, sc; type: organism-based; design: dose 320 mg/kg, route subcutaneous; conditions: in vivo
[9] = test system: Plasmodium berghei; assay: Antimalarial activity against Plasmodium berghei infected in mouse assessed as disease cure by measuring host survival for 60 days at 160 mg/kg, sc; type: functional, organism-based; design: dose 160 mg/kg

Question: Which MST [1] does the source give for `C=C[C@H]1CN2CC[C@H]1C[C@H]2[C@H](O)c1ccnc2ccc(OC)cc12` [QUININE] here?
Answer: 4.8 days

Question: And the Activity [2]?
Answer: Non-toxic

Question: And the MST [3]?
Answer: 0.6 days

Question: What about the MED [4] of the same compound?
Answer: Not Active

Question: What does the source list for `CCCCN(CCCC)CC(O)c1c(C)cnc2c1ccc1cccc(Cl)c12.Cl` (stereo not given)?
Answer: MST [1]: 8.2 days; Activity [2]: Non-toxic; MST [3]: 1.2 days; MED [4]: 200 mg/kg; MST [5]: 6.2 days

Question: Which Activity [6] does the source give for `CCCCN(CCCC)CC(O)c1cc(-c2ccc(C)cc2C)nc2c1cc(Cl)c1ccccc12.Cl` (stereo not given) here?
Answer: Active

Question: And the Activity [2]?
Answer: Non-toxic

Question: And the MST [3]?
Answer: 9 days

Question: And the Activity [7]?
Answer: Active

Question: How did the MST [1] turn out when `CCCCN(CCCC)CC(O)c1cc(-c2ccc(C)cc2C)nc2c1ccc1ccccc12.Cl` (stereo not given) was run?
Answer: 5.6 days

Question: And the Activity [2]?
Answer: Non-toxic

Question: And the MST [3]?
Answer: 4.2 days

Question: And the MED [4]?
Answer: 300 mg/kg

Question: And the MST [5]?
Answer: 4.6 days

Question: `CCCCN(CCCC)CC(O)c1cc(C(C)(C)C)nc2c1cc(C)c1ccccc12.O=C(O)C(=O)O` (stereo not given) was tested. Which MST [1] did it give?
Answer: 5.9 days

Question: What about the Activity [2] of the same compound?
Answer: Non-toxic

Question: And the MST [3]?
Answer: 2.7 days

Question: And the MED [4]?
Answer: 300 mg/kg

Question: And the MST [5]?
Answer: 3.5 days

Question: How did the Activity [8] turn out when `CCCCN(CCCC)CC(O)c1cc(-c2cc(OC)c(OC)c(OC)c2)nc2c1cc(Cl)c1ccccc12.Cl` (stereo not given) was run?
Answer: Non-toxic

Question: What about the Activity [6] of the same compound?
Answer: Active

Question: What about the Activity [9] of the same compound?
Answer: Active

Question: And the MED [4]?
Answer: 80 mg/kg

Question: What does the source list for `CCCCN(CCCC)CC(O)c1cc(C(C)(C)C)nc2c1cc(Cl)c1ccccc12.O=C(O)C(=O)O` (stereo not given)?
Answer: Activity [6]: Active; Activity [2]: Non-toxic; MST [3]: 2.2 days; MED [4]: 100 mg/kg; Activity [7]: Active

Question: How did the Activity [2] turn out when `C=C[C@H]1CN2CC[C@H]1C[C@H]2[C@H](O)c1cc(-c2ccccc2)nc2ccc(OC)cc12` was run?
Answer: Non-toxic

Question: And the MST [3]?
Answer: 5.8 days

Question: And the MED [4]?
Answer: 10 mg/kg

Question: And the Activity [7]?
Answer: Active

Question: With `CCCCN(CCCC)CC(O)c1c(C)cnc2c1ccc1ccccc12.Cl` (stereo not given) as the compound, how does the MST [1] read?
Answer: 5.3 days

Question: And the Activity [2]?
Answer: Non-toxic

Question: And the MST [3]?
Answer: 0.9 days

Question: What about the MED [4] of the same compound?
Answer: Not Active

Question: What about the MST [5] of the same compound?
Answer: 2.9 days

Question: What does the source list for `CCCCN(CCCC)CC(O)c1cc(C(C)(C)C)nc2c1ccc1ccccc12.O=C(O)C(=O)O` (stereo not given)?
Answer: MST [1]: 10.2 days; Activity [2]: Toxic; MED [4]: 100 mg/kg; MST [5]: 1.2 days

Question: `CCCCN(CCCC)CC(O)c1c(C)cnc2c1cc(Cl)c1ccccc12.Cl` (stereo not given) was tested. Which Activity [2] did it give?
Answer: Non-toxic

Question: What about the MST [3] of the same compound?
Answer: 6.9 days

Question: And the MED [4]?
Answer: 400 mg/kg

Question: What about the Activity [7] of the same compound?
Answer: Active

Question: What about the MST [5] of the same compound?
Answer: 12.9 days
